Common to all, as to assay type: cell-based
In assay [1] the target is T1, human GLP-1R (Homo sapiens, UniProt P43220).
T1 construct: host or cells: COS-7
As to the kind of experiment: cAMP assay (HitHunter) in transiently transfected COS-7 cells expressing human GLP-1R. As to conditions: for Emax: COS-7, normalized to highest concentration of the endogenous ligand, read-out: Efficacy GLP-1R (Emax); for EC50: cAMP, COS-7 cells, human GLP-1R, read-out: EC50 (nM) GLP-1R. The method, then:
(§1) The next day the assay was initiated by washing with HEPES buffered saline (HBS) and followed by an incubation step with assay buffer (HBS added 1 mM isobutyl-1-methylxanthine (IBMX)) for 30 min at 37° C. The ligands were then added and incubated for an additional 30 min at 37° C. After ligand incubation, the HitHunter® CAMP assay (Eurofins DiscoverX, Fremont, […] USA) was carried out according to the manufacturer's instructions. […] The potencies (EC50 values) were determined by nonlinear regression using GraphPad Prism 9 (San Diego, California, USA). Sigmoid curves were fitted logistically. The efficacies (Emax values) were determined by normalization to the highest concentration applied of the endogenous ligand for each receptor.
(In general: Cyclic AMP is a second messenger, typically raised through Gs and lowered through Gi signalling.)

The target in assay [2] is T2, human GLP-2R (Homo sapiens, UniProt O95838).
T2 construct: host or cells: COS-7
T2 sequence (O95838 1-553): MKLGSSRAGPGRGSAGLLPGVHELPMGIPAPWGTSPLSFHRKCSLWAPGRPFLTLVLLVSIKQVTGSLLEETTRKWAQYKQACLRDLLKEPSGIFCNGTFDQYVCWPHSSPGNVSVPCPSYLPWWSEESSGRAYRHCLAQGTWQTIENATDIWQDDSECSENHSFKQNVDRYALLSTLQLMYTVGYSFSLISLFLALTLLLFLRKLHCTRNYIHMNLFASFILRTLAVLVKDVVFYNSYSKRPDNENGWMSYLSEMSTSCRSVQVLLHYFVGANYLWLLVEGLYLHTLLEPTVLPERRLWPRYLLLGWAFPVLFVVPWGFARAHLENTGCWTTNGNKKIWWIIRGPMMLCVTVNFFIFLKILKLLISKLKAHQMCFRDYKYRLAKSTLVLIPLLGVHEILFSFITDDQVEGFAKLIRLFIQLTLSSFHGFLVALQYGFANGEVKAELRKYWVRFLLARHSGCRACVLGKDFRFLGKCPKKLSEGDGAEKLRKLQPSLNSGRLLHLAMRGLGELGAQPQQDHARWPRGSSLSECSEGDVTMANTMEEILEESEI
The assay can be described thus: cAMP assay (HitHunter) in transiently transfected COS-7 cells expressing human GLP-2R. As to conditions: COS-7; normalized to highest concentration of the endogenous ligand; read-out: Efficacy GLP-2R (Emax). How it is done:
as §1

The target of assay [3] is T3, human GIPR (Homo sapiens, UniProt P48546).
T3 construct: host or cells: COS-7
T3 sequence (P48546 22-466): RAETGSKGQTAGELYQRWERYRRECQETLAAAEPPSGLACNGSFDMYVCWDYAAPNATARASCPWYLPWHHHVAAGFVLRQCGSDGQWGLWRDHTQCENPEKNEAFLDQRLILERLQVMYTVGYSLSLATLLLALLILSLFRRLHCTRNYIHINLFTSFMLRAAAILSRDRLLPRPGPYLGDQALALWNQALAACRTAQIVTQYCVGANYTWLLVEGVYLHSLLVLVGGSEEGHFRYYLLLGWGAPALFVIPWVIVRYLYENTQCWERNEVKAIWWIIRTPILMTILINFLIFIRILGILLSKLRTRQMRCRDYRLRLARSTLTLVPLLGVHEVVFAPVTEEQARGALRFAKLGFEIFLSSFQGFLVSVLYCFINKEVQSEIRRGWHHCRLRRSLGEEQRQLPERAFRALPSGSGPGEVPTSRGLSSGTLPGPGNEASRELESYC
As to the kind of experiment: cAMP assay (HitHunter) in transiently transfected COS-7 cells expressing human GIPR. As to conditions: for Emax: COS-7, normalized to highest concentration of the endogenous ligand, read-out: Efficacy GIPR (Emax); for EC50: cAMP, COS-7 cells, human GIPR. The method, then:
as §1

We go through 5 molecules from patent US20250304644A1, “PEPTIDES TRIPLE AGONISTS OF GIP, GLP-1 AND GLP-2” (BAINAN BIOTECH APS, priority 2021, published 2025).

Where a SMILES comes first, the peptide text is derived from it. [ ]: non-standard residue; d: D form. The star is where a group is joined. Decanoyl = CCCCCCCCCC(=O)*; Aib = CC(C)(N)C(=O)O

T1 sequence (P43220 24-463): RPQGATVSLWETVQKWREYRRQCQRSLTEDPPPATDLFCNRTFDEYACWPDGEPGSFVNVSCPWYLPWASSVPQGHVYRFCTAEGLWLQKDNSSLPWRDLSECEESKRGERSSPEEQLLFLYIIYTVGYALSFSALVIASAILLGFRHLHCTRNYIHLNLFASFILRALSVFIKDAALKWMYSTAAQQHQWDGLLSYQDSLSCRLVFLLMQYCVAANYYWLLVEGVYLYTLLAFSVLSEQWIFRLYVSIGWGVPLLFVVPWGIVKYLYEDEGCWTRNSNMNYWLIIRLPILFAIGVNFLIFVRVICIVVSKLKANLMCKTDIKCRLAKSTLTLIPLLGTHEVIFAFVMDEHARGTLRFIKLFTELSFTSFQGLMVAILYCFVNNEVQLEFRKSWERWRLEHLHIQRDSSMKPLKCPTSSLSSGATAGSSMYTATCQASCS

Regarding `CCCCCCCCCC(=O)NCCCC[C@H](NC(=O)[C@@H](NC(=O)[C@@H](NC(=O)[C@H](CCCCN)NC(=O)[C@@H](NC(=O)[C@H](CCC(N)=O)NC(=O)[C@@H](NC(=O)[C@H](CC(C)C)NC(=O)[C@H](Cc1c[nH]c2ccccc12)NC(=O)[C@H](CC(N)=O)NC(=O)[C@@H](NC(=O)[C@H](Cc1ccccc1)NC(=O)[C@H](CC(=O)O)NC(=O)[C@H](CCCNC(=N)N)NC(=O)[C@H](C)NC(=O)[C@H](C)NC(=O)[C@H](CC(C)C)NC(=O)[C@H](CC(N)=O)NC(=O)[C@H](CC(=O)O)NC(=O)[C@H](CC(C)C)NC(=O)[C@@H](NC(=O)[C@@H](NC(=O)[C@H](CO)NC(=O)[C@H](Cc1ccc(O)cc1)NC(=O)[C@H](CC(=O)O)NC(=O)[C@H](CO)NC(=O)[C@@H](NC(=O)[C@H](Cc1ccccc1)NC(=O)[C@@H](NC(=O)CNC(=O)[C@H](CC(=O)O)NC(=O)C(C)(C)NC(=O)[C@@H](N)Cc1c[nH]cn1)[C@@H](C)O)[C@@H](C)CC)[C@@H](C)O)[C@@H](C)CC)[C@@H](C)CC)[C@@H](C)CC)[C@@H](C)O)[C@@H](C)CC)[C@@H](C)O)C(N)=O` (single isomer, unassigned) [Compound 6], the Emax came to 96% in assay [1], 99% in assay [2] and 97% in assay [3].
With `CCCCCCCCCC(=O)NCCCC[C@H](NC(=O)[C@@H](NC(=O)[C@@H](NC(=O)[C@H](CCCCN)NC(=O)[C@@H](NC(=O)[C@H](CCC(N)=O)NC(=O)[C@@H](NC(=O)[C@H](CC(C)C)NC(=O)[C@H](Cc1c[nH]c2ccccc12)NC(=O)[C@H](CC(N)=O)NC(=O)[C@@H](NC(=O)[C@H](Cc1ccccc1)NC(=O)[C@H](CC(=O)O)NC(=O)[C@H](CCCNC(=N)N)NC(=O)[C@H](C)NC(=O)[C@H](C)NC(=O)[C@H](CC(C)C)NC(=O)[C@H](CC(N)=O)NC(=O)[C@H](CC(=O)O)NC(=O)[C@H](CC(C)C)NC(=O)[C@@H](NC(=O)[C@@H](NC(=O)[C@H](C)NC(=O)[C@H](Cc1ccc(O)cc1)NC(=O)[C@H](CC(=O)O)NC(=O)[C@H](CO)NC(=O)[C@@H](NC(=O)[C@H](Cc1ccccc1)NC(=O)[C@@H](NC(=O)CNC(=O)[C@H](CC(=O)O)NC(=O)C(C)(C)NC(=O)[C@@H](N)Cc1c[nH]cn1)[C@@H](C)O)[C@@H](C)CC)[C@@H](C)O)[C@@H](C)CC)[C@@H](C)CC)[C@@H](C)CC)[C@@H](C)O)[C@@H](C)CC)[C@@H](C)O)C(=O)O` [Compound 3] (H-H[Aib]DGTFISDYATILDNLAARDFINWLIQTKITK(Decanoyl)-OH; N-terminus assumed), the results for the Emax in assay [1], in assay [2] and in assay [3] were 94%, 101% and 80%, respectively. Moreover, the EC50 in assay [1] turned out to be 1.78 nM; in assay [3], 0.631 nM.
Turning to `CCCCCCCCCC(=O)NCCCC[C@H](NC(=O)[C@@H](NC(=O)[C@@H](NC(=O)[C@H](CCCCN)NC(=O)[C@@H](NC(=O)[C@H](CCC(N)=O)NC(=O)[C@@H](NC(=O)[C@H](CC(C)C)NC(=O)[C@H](Cc1c[nH]c2ccccc12)NC(=O)[C@H](CC(N)=O)NC(=O)[C@@H](NC(=O)[C@H](Cc1ccccc1)NC(=O)[C@H](CC(=O)O)NC(=O)[C@H](CCCNC(=N)N)NC(=O)[C@H](C)NC(=O)[C@H](C)NC(=O)[C@H](CC(C)C)NC(=O)[C@H](CC(C)C)NC(=O)[C@H](CC(=O)O)NC(=O)[C@H](CC(C)C)NC(=O)[C@@H](NC(=O)[C@@H](NC(=O)[C@H](CO)NC(=O)[C@H](Cc1ccc(O)cc1)NC(=O)[C@H](CC(=O)O)NC(=O)[C@H](CO)NC(=O)[C@@H](NC(=O)[C@H](Cc1ccccc1)NC(=O)[C@@H](NC(=O)CNC(=O)[C@H](CC(=O)O)NC(=O)C(C)(C)NC(=O)[C@@H](N)Cc1c[nH]cn1)[C@@H](C)O)[C@@H](C)CC)[C@@H](C)O)[C@@H](C)CC)[C@@H](C)CC)[C@@H](C)CC)[C@@H](C)O)[C@@H](C)CC)[C@@H](C)O)C(N)=O` [Compound 4] (H-H[Aib]DGTFISDYSTILDLLAARDFINWLIQTKITK(Decanoyl)-NH2), the maximal effect (Emax) was determined as 82% in assay [1], 92% in assay [2] and 102% in assay [3]. The values for the EC50 in assay [1] and in assay [3] were 25.1 nM and 1.12 nM, respectively.
Turning to `CCCCCCCCCC(=O)NCCCC[C@H](NC(=O)[C@@H](NC(=O)[C@@H](NC(=O)[C@H](CCCCN)NC(=O)[C@@H](NC(=O)[C@H](CCC(N)=O)NC(=O)[C@@H](NC(=O)[C@H](CC(C)C)NC(=O)[C@H](Cc1c[nH]c2ccccc12)NC(=O)[C@H](CC(N)=O)NC(=O)[C@@H](NC(=O)[C@H](Cc1ccccc1)NC(=O)[C@H](CCC(=O)O)NC(=O)[C@H](CCCNC(=N)N)NC(=O)[C@H](C)NC(=O)[C@H](C)NC(=O)[C@H](CC(C)C)NC(=O)[C@H](CC(N)=O)NC(=O)[C@H](CC(=O)O)NC(=O)[C@H](CC(C)C)NC(=O)[C@@H](NC(=O)[C@@H](NC(=O)[C@H](CO)NC(=O)[C@H](Cc1ccc(O)cc1)NC(=O)[C@H](CC(=O)O)NC(=O)[C@H](CO)NC(=O)[C@@H](NC(=O)[C@H](Cc1ccccc1)NC(=O)[C@@H](NC(=O)CNC(=O)[C@H](CC(=O)O)NC(=O)C(C)(C)NC(=O)[C@@H](N)Cc1c[nH]cn1)[C@@H](C)O)[C@@H](C)CC)[C@@H](C)O)[C@@H](C)CC)[C@@H](C)CC)[C@@H](C)CC)[C@@H](C)O)[C@@H](C)CC)[C@@H](C)O)C(N)=O` [Compound 8] (H-H[Aib]DGTFISDYSTILDNLAAREFINWLIQTKITK(Decanoyl)-NH2; N-terminus assumed), the maximum response (Emax) in assay [1] was found to be 98%. Moreover, in assay [3], the maximum response (Emax) stood at 99% and the 50% effective concentration (EC50) was 1.12 nM.
Consider `CCCCCCCCCC(=O)NCCCC[C@H](NC(=O)[C@@H](NC(=O)[C@@H](NC(=O)[C@H](CCCCN)NC(=O)[C@@H](NC(=O)[C@H](CCC(N)=O)NC(=O)[C@@H](NC(=O)[C@H](CC(C)C)NC(=O)[C@H](Cc1c[nH]c2ccccc12)NC(=O)[C@H](CC(N)=O)NC(=O)[C@@H](NC(=O)[C@H](Cc1ccccc1)NC(=O)[C@H](CC(=O)O)NC(=O)[C@H](CCCNC(=N)N)NC(=O)[C@H](C)NC(=O)[C@H](C)NC(=O)[C@@H](NC(=O)[C@H](CC(N)=O)NC(=O)[C@H](CC(=O)O)NC(=O)[C@H](CC(C)C)NC(=O)[C@@H](NC(=O)[C@@H](NC(=O)[C@H](CO)NC(=O)[C@H](Cc1ccc(O)cc1)NC(=O)[C@H](CC(=O)O)NC(=O)[C@H](CO)NC(=O)[C@@H](NC(=O)[C@H](Cc1ccccc1)NC(=O)[C@@H](NC(=O)CNC(=O)[C@H](CC(=O)O)NC(=O)C(C)(C)NC(=O)[C@@H](N)Cc1c[nH]cn1)[C@@H](C)O)[C@@H](C)CC)[C@@H](C)O)[C@@H](C)CC)[C@@H](C)CC)[C@@H](C)CC)[C@@H](C)CC)[C@@H](C)O)[C@@H](C)CC)[C@@H](C)O)C(N)=O` [Compound 15] (H-H[Aib]DGTFISDYSTILDNIAARDFINWLIQTKITK(Decanoyl)-NH2; N-terminus assumed), for which the Emax in assay [1] turned out to be 90%. Besides, in assay [3], the Emax is 98% and a half-maximal effect (EC50) was put at 0.794 nM.

As a reminder, the Emax is the maximal effect, on the per cent scale that the assay sets. By EC50 is commonly meant the midpoint of the concentration-response curve.
